Assay results from patent publication US20240174625A1, “COMPOSITIONS AND METHODS FOR TREATING TAUOPATHIES” (The Regents of the University of California, priority 2021, published 2024).

Experiments:
NPEPPS = target: T1, NPEPPS (Homo sapiens, UniProt P55786); assay: Cell-based NPEPPS activity assay (Q-AMC fluorescence); settings: for EC50: log10 transformed, EC50 = concentration that elevates 50% NPEPPS activity (150% of DMSO baseline), HEK293T cells; for fluorescence change (NPEPPS activity): Q-AMC assay, inhibitors, FIG. 2D
T1 construct: endogenous in cells; host or cells: HEK293T
T1 sequence (P55786 whole entry): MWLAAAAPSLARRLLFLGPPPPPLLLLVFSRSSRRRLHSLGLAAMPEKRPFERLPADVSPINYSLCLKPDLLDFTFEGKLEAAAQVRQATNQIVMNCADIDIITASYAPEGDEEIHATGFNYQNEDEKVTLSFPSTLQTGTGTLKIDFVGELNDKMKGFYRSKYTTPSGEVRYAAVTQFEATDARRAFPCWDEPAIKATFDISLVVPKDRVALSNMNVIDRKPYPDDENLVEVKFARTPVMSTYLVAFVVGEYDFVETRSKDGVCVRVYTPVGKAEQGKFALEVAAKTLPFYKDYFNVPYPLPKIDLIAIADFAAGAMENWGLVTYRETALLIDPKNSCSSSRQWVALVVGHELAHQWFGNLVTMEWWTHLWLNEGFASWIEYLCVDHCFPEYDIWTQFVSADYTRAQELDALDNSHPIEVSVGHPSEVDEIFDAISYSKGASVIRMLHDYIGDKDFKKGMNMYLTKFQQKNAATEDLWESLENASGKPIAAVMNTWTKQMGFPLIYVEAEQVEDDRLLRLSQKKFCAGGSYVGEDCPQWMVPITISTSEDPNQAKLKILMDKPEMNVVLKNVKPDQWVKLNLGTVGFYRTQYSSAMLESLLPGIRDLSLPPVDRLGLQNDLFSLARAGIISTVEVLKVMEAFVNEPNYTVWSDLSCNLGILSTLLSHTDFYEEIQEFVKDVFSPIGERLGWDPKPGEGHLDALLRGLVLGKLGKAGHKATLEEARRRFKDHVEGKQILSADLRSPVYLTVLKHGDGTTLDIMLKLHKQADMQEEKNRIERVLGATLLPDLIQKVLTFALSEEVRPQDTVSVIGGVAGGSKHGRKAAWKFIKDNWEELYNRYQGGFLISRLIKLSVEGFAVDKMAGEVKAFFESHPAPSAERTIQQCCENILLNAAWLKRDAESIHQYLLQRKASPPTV
Description: HEK293T cells (AATC) were maintained in a complete media containing DMEM (Gibco 11995-065) in the presence of 10% fetal bovine serum (FBS, Gibco 10082147), […] penicillin and 50 μg/ml streptomycin (Gibco 15140163) at 37° C. with 5% CO2. NPEPPS activity assay was conducted in a fresh-prepared minimal medium containing essential amino acids, vitamin, AlbuMax (Invitrogen 11021-029) in 1×HBS buffer. Black wall, clear bottom 384-well assay plates (Greiner EK-30092) were coated with poly-L-ornithine (0.1 mg/ml, Sigma P3655) overnight and washed once with 1×PBS. 15 μl minimal medium was then added to each well. 250 nL of compounds dissolved in OmniSolve methylsulfoxide (dimethyl sulfoxide, DMSO, Sigma MX1456P) were pinned to each well via Biomek FX^P Liquid Handling Automation (Beckman Coulter) from compound source plates, i.e., either pre-made compound libraries or JMM compounds (20-step, 2-fold dilution) dissolved in OmniSolve DMSO prepared via Biomek automation in 384-well clear V-bottom polypropylene microplates (ThermoScientific 50-823-639). Cells were harvested, resuspended in minimal medium, and seeded at 16,500 cells/15 μl/well in the 384-well assay plates. 24 hrs later, 30 μl 200 μM H-Gln-AMC hydrobromide salt (Q-AMC, Bachem #I-1175) in 1×HBS containing 0.1% DMSO was added into each well. The fluorescent signal at excitation/emission wavelengths of 360/460 nm was measured immediately upon Q-AMC addition and 3 hrs post-Q-AMC. The change in fluorescence is measured as a readout of NPEPPS activity.
To identify small molecules that either increase NPEPPS levels or NPEPPS activity, a cell-based NPEPPS activity assay amenable to high-throughput screening (HTS) by adapting a fluorescent peptidase activity assay^2 was developed. Since NPEPPS is one of the only aminopeptidases capable of cleaving glutamine-peptide bonds^3 and the major aminopeptidase responsible for degradation of poly-glutamine sequences in the brain^4, a fluorogenic compound, glutamine-7-amino-4-methylcoumarin (Q-AMC), was selected as a substrate to measure NPEPPS activity. The peptide bond of Q-AMC is hydrolyzed by NPEPPS to release glutamine and a fluorescent product, 7-amino-4-methylcoumarin (AMC), when Q-AMC is added directly to the cell culture media. This change in fluorescence is measured as a readout of aminopeptidase activity (FIG. 2A). Overexpression of NPEPPS in HEK293T cells results in a significant increase in fluorescence, whereas knock-down or chemical inhibition of NPEPPS decrease fluorescence change (FIG. 2B-D), validating that the changes in fluorescence observed in the Q-AMC-based assay directly correlate with changes in NPEPPS activity. A high-throughput (HTS) screen (201,845 compounds) was conducted at the UCLA MSSR core (FIG. 2E). Follow-up assays and chemical clustering identified three series of compounds with distinct chemical clusters (FIG. 2F).
(§1) To investigate the effects of JMM compounds that enhance NPEPPS activity and assess their cellular toxicity, 139 compounds in the JMM series (i.e., JMM001-JMM139) were tested in dose responses (20-step, 2-fold dilution) using NPEPPS activity and viability assays in HEK293T cells. 76 compounds harboring different modifications produce concentration-dependent enhancement on NPEPPS activity compared to DMSO control (FIG. 4). […] A therapeutic index (TI, a ratio of IC50 over EC50) is used to evaluate the relative safety profiles of the compounds. […] 16 JMM compounds show both improved potency and reduced toxicity (EC50<10 μM and TI>10, Table 1).

HEK293T cells = assay: Cell viability assay (CellTiter Glo); format: cell-based, human; settings: for IC50: Homo sapiens, HEK-293T, log10 transformed, IC50 = concentration that suppresses 50% cell viability, HEK293T cells; for Therapeutic index: ratio of IC50 (cell viability) over EC50 (NPEPPS activity)
Description: HEK293T cells (AATC) were maintained in complete media and cell viability assay was conducted in a fresh-prepared minimal medium containing essential amino acids, vitamin, AlbuMax (Invitrogen 11021-029) in 1×HBS buffer. White 384-well assay plates (Greiner EK-30080) were coated with poly-L-ornithine (0.1 mg/ml) overnight and washed once with 1×PBS. 15 μl minimal medium was then added to each well. 250 nl of compounds dissolved in OmniSolve DMSO were pinned to each well via Biomek FX^P Liquid Handling Automation from compound source plates. Cells were harvested, resuspended in minimal medium, and seeded at 16,500 cells/15 μl/well in the 384-well assay plates. 24 hrs later, 25 μl/well CellTiter Glo reagent (Promega G7572) was added into each well, and luminescence (0.5 second integration time) was acquired following manufacture's protocol. Luminescence count normalized to DMSO control is used as a readout of cell viability.
as §1

SMILES | EC50 (NPEPPS) [µM] | fluorescence change (NPEPPS activity) (NPEPPS) | IC50 (HEK293T cells) [µM] | Therapeutic index (HEK293T cells)
CS(=O)(=O)N(Cc1ccc(C(F)(F)F)cc1)c1nsc2ccccc12 [JMM071] |  |  | 10 | 
c1ccc(COc2ccc3snc(NCc4ccc(COc5ccccc5)cc4)c3c2)cc1 [JMM124, 5-(Benzyloxy)-N-(4-(phenoxymethyl)benzyl)benzo[d]isothiazol-3-amine] |  |  | 724 | 
c1ccc(COc2ccc3snc(NC4c5ccccc5-c5ccccc54)c3c2)cc1 [JMM089] |  |  | 3310 | 
COc1ccc(CNc2nccc3ccccc23)cc1OC [JMM034] |  |  | 186 | 
c1ccc2c(CNc3nsc4ccccc34)nccc2c1 [JMM074] |  |  | 1820 | 
O=C(Nc1nsc2ccccc12)c1ccc(C(F)(F)F)cc1 [JMM007] |  |  | 1740 | 
COc1cccc(CNc2nsc3ccccc23)c1 [JMM010] |  |  | 97.7 | 
c1ccc2c(c1)CN(c1nsc3ccccc13)C2 [JMM087] |  |  | 229 | 
c1ccc(COc2ccc3snc(NCc4ccc(OCc5ccccc5)c5ccccc45)c3c2)cc1 [JMM116, 5-(Benzyloxy)-N-((4-(benzyloxy)naphthalen-1-yl)methyl)benzo[d]isothiazol-3-amine] |  |  | 1000 | 
c1ccc(COc2ccc3snc(NCc4ccc(Cc5ccccc5)cc4)c3c2)cc1 [JMM120, N-(4-benzylbenzyl)-5-(benzyloxy)benzo[d]isothiazol-3-amine] |  |  | 1050 | 
O=C1c2ccccc2C(=O)N1c1nsc2cnccc12 [JMM085] |  |  | 3160 | 
c1ccc(COc2ccc3snc(NCc4ccc(N(Cc5ccccc5)Cc5ccccc5)cc4)c3c2)cc1 [JMM126, 5-(Benzyloxy)-N-(4-(dibenzylamino)benzyl)benzo[d]isothiazol-3-amine] |  |  | 1260 | 
COc1ccc(CNc2ncnc3ccccc23)cc1OC [JMM036] |  |  | 135 | 
c1ccc2c(CNc3nsc4ccccc34)c3ccccc3cc2c1 [JMM018] |  |  | 9550 | 
O=C(Nc1nsc2ccccc12)c1ccc2c(c1)OCCO2 [JMM006] |  |  | 282 | 
Cc1cc(C)c(COc2ccc(CNc3nsc4ccc(OCc5ccccc5)cc34)cc2)c(C)c1 [JMM123, 5-(Benzyloxy)-N-(4-((2,4,6-trimethylbenzyl)oxy)benzyl)benzo[d]isothiazol-3-amine] |  |  | 661 | 
CC(C)C[C@H](NC(=O)[C@@H](O)[C@H](N)Cc1ccccc1)C(=O)O [bestatin, reference compound] |  | decreases in fluorescence change |  | 
COc1ccc(C[C@H](N)C(=O)N[C@H]2[C@@H](O)[C@H](n3cnc4c(N(C)C)ncnc43)O[C@@H]2CO)cc1 [puromycin, reference compound] |  | decreases in fluorescence change |  | 

Second part, led by results:

EC50 (NPEPPS) [µM] | fluorescence change (NPEPPS activity) (NPEPPS) | SMILES | IC50 (HEK293T cells) [µM] | Therapeutic index (HEK293T cells)
5.01 |  | CN(Cc1ccc(Cl)c(Cl)c1)c1nsc2ccc(OCc3ccccc3)cc12 [JMM093] | 20.4 | 4.06
126 |  | c1ccc(COc2ccc3snc(NCc4ccc(OCc5cccc6ccccc56)cc4)c3c2)cc1 [JMM106, 5-(Benzyloxy)-N-(4-(naphthalen-1-ylmethoxy)benzyl)benzo[d]isothiazol-3-amine] | 794 | 6.26
7.41 |  | FC(F)(F)c1ccc(COc2ccc(CNc3nsc4ccccc34)cc2)cc1 [JMM031] | 77.6 | 10.38
67.6 |  | FC(F)(F)c1ccc(CNc2nsc3ncccc23)cc1 [JMM059] | 120 | 1.78
105 |  | COc1ccc(CNc2nsc3c(Br)cccc23)cc1OC [JMM041] | 245 | 2.37
44.7 |  | CCN(Cc1ccc(C(F)(F)F)cc1)c1nsc2ccccc12 [JMM092] | 126 | 2.84
251 |  | COc1ccc(CCNc2nsc3ccccc23)cc1OC [JMM020] | 120 | 0.48
7.08 |  | FC(F)(F)c1ccc(C(Nc2nsc3ccccc23)c2ccc(C(F)(F)F)cc2)cc1 [JMM051] | 14.1 | 2.03
4.17 |  | c1ccc(COc2ccc3snc(NCc4ccc(OCC5CC5)cc4)c3c2)cc1 [JMM135, 5-(Benzyloxy)-N-(4-(cyclopropylmethoxy)benzyl)benzo[d]isothiazol-3-amine] | 6.46 | 1.54
316 |  | Fc1ccc(CNc2nsc3ccccc23)cc1 [JMM011] | 389 | 1.25
126 |  | Brc1ccc(CNc2nsc3ccccc23)cc1 [JMM016] | 47.9 | 0.38
58.9 |  | COc1ccc(CN(C)c2nsc3ccccc23)cc1OC [JMM068] | 132 | 2.22
15.8 |  | FC(F)(F)c1ccc(COc2ccc(CNc3nsc4ccc(OCc5ccccc5)cc34)cc2)cc1 [JMM121, 5-(Benzyloxy)-N-(4-((4-(trifluoromethyl)benzyl)oxy)benzyl)benzo[d]isothiazol-3-amine] | 295 | 18.30
63.1 |  | Fc1ccc2snc(NCc3ccc(OCc4ccccc4)cc3)c2c1 [JMM130, N-(4-(Benzyloxy)benzyl)-5-fluorobenzo[d]isothiazol-3-amine] | 224 | 3.56
18.6 |  | CN(Cc1ccc(SC(F)(F)F)cc1)c1nsc2ccc(OCc3ccccc3)cc12 [JMM098] | 107 | 5.68
63.1 |  | N#Cc1ccc(CNc2nsc3ccccc23)cc1 [JMM044] | 417 | 6.68
53.7 |  | FC(F)(F)c1ccc(CNc2nsc3cccnc23)cc1 [JMM060] | 102 | 1.88
0.977 |  | CN(Cc1ccc(OCc2ccccc2)cc1)c1nsc2ccc(OCc3ccccc3)cc12 [JMM088] | 97.7 | 100.53
5.5 |  | FC(F)(F)c1ccc(CN(CC2CC2)c2nsc3ccccc23)cc1 [JMM133, N-(Cyclopropylmethyl)-N-(4-(trifluoromethyl)benzyl)benzo[d]isothiazol-3-amine] | 20.9 | 3.78
79.4 |  | COc1ccc(CN(C)c2nsc3ccc(OC)cc23)cc1 [JMM100] | 126 | 1.56
13.8 |  | FC(F)(F)c1ccc2snc(NCc3ccc(OCc4ccccc4)cc3)c2c1 [JMM134, N-(4-(Benzyloxy)benzyl)-5-(trifluoromethyl)benzo[d]isothiazol-3-amine] | 257 | 18.60
57.5 |  | Fc1ccc(COc2ccc(CNc3nsc4ccc(OCc5ccccc5)cc34)cc2)cc1 [JMM117, 5-(Benzyloxy)-N-(4-((4-fluorobenzyl)oxy)benzyl)benzo[d]isothiazol-3-amine] | 110 | 1.88
